# Data published in ChEMBL document CHEMBL1130478, “Mono and bis double ester prodrugs of novel aminomethyl-THF 1-methylcarbapenems” (Bioorg Med Chem Lett, 1997).
# Experiments:
# Format in all cases: functional
# [1] = test system: Mus musculus; assay: Antibacterial activity against Escherichia coli (311) infection in mice after single subcutaneous dose, activity expressed as ED50; conditions: sc
# [2] = test system: Mus musculus; assay: Antibacterial activity against Escherichia coli (311) infection in mice after single oral dose, activity expressed as ED50
# [3] = test system: Staphylococcus aureus; assay: In vitro antibacterial activity against S. aureus(ATCC 29213) without pre-incubation in mouse serum
# [4] = test system: Staphylococcus aureus; assay: In vitro antibacterial activity against S aureus(ATCC 29213) following preincubation in mouse serum
# [5] = molecular target: T1, Dipeptidase 1 (Sus scrofa) (UniProt P22412); assay: Relative hydrolysis by hog Dehydropeptidase
# T1 sequence (whole entry): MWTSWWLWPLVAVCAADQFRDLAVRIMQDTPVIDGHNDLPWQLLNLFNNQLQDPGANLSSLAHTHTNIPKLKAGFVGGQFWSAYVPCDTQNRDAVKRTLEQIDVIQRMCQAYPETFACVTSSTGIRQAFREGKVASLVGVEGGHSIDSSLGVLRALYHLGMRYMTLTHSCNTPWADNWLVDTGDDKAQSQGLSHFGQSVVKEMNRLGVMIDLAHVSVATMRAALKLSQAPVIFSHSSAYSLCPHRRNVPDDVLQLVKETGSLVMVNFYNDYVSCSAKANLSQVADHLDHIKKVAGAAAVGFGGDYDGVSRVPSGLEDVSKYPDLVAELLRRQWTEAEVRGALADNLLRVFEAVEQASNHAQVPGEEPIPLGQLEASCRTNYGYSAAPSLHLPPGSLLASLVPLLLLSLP
# [6] = test system: Acinetobacter calcoaceticus; assay: In vitro antibacterial activity against Acinetobacter calcoaceticus (GC 756) without preincubation in mouse serum
# [7] = test system: Enterococcus faecium; assay: In vitro for antibacterial activity against E. faecium(GC 1182) following pre-incubation in mouse serum
# [8] = test system: Pseudomonas aeruginosa; assay: In vitro antibacterial activity against Pseudomonas aeruginosa (ATCC 27853) without pre-incubation in mouse serum
# [9] = test system: Enterococcus faecium; assay: In vitro for antibacterial activity against E. faecium(GC 1182) without pre-incubation in mouse serum
# [10] = test system: Enterococcus faecalis; assay: In vitro antibacterial activity against E. faecalis(GC 842) without pre-incubation in mouse serum
# [11] = test system: Escherichia coli; assay: In vitro antibacterial activity expressed as MIC against Escherichia coli (ATCC 25922) without pre-incubation in mouse serum
# [12] = test system: Stenotrophomonas maltophilia; assay: In vitro antibacterial activity against X. maltophilia(GC 562) following pre-incubation in mouse serum
# [13] = test system: Escherichia coli; assay: In vitro antibacterial activity expressed as MIC against E. coli(GC 2205) following pre-incubation in mouse serum
# [14] = test system: Enterobacter cloacae; assay: In vitro antibacterial activity against E. cloacae(GC 2209) following preincubation in mouse serum
# [15] = test system: Citrobacter freundii; assay: In vitro antibacterial activity against C. freundii(GC 2211) without preincubation in mouse serum
# [16] = test system: Pseudomonas aeruginosa; assay: In vitro antibacterial activity against P. aeruginosa(GC 1544 oprd) following pre-incubation in mouse serum
# [17] = test system: Citrobacter freundii; assay: In vitro antibacterial activity against C. freundii(GC 2211) following pre-incubation in mouse serum
# [18] = test system: Escherichia coli; assay: In vitro antibacterial activity expressed as MIC against Escherichia coli (ATCC 25922) following pre-incubation in mouse serum
# [19] = test system: Acinetobacter calcoaceticus; assay: In vitro antibacterial activity against Acinetobacter calcoaceticus (GC 756) following preincubation in mouse serum
# [20] = test system: Enterococcus faecalis; assay: In vitro antibacterial activity against E. faecalis(GC 842) following pre-incubation in mouse serum
# [21] = test system: Staphylococcus aureus; assay: In vitro antibacterial activity against S. aureus(GC 2220 MRSA) following pre-incubation in mouse serum
# [22] = test system: Escherichia coli; assay: In vitro antibacterial activity expressed as MIC against E. coli(GC 1792) following pre-incubation in mouse serum
# [23] = test system: Morganella morganii; assay: In vitro antibacterial activity against M. morganii(GC 2213) without pre-incubation in mouse serum
# [24] = test system: Morganella morganii; assay: In vitro antibacterial activity against M. morganii(GC 2213) following pre-incubation in mouse serum
# [25] = test system: Escherichia coli; assay: In vitro antibacterial activity expressed as MIC against E. coli(GC 1792) without pre-incubation in mouse serum
# [26] = test system: Enterobacter cloacae; assay: In vitro antibacterial activity against E. cloacae(GC 2209) without pre-incubation in mouse serum
# [27] = test system: Staphylococcus aureus; assay: In vitro antibacterial activity against S. aureus(GC 2220 MRSA) without pre-incubation in mouse serum
# [28] = test system: Escherichia coli; assay: In vitro antibacterial activity expressed as MIC against E. coli(GC 2205) without pre-incubation in mouse serum
# [29] = test system: Stenotrophomonas maltophilia; assay: In vitro antibacterial activity against X. maltophilia(GC 562) without pre-incubation in mouse serum
# [30] = test system: Pseudomonas aeruginosa; assay: In vitro antibacterial activity against Pseudomonas aeruginosa (ATCC 27853) following pre-incubation in mouse serum
# [31] = test system: Pseudomonas aeruginosa; assay: In vitro antibacterial activity against P. aeruginosa(GC 1544 oprd) without pre-incubation in mouse serum
structure (smiles),measurement,setting,value
CC(OC(=O)OC1=CCCCC1)OC(=O)C1=C(S[C@@H]2CCO[C@@H]2CNC(=O)OCOC(=O)C(C)C)[C@H](C)C2[C@@H]([C@@H](C)O)C(=O)N12 (stereo partly drawn),ED50,[1],1.9 mg/kg
same,ED50,[2],1.5 mg/kg
C[C@H]1C(S[C@@H]2CCO[C@@H]2CNC(=O)OCOC(=O)c2ccccc2)=C(C(=O)[O-])N2C(=O)[C@H]([C@@H](C)O)C12.[Na+] (stereo partly drawn),ED50,[1],0.32 mg/kg
same,ED50,[2],2.9 mg/kg
CC(C)C(=O)OCOC(=O)NC[C@H]1OCC[C@H]1SC1=C(C(=O)[O-])N2C(=O)[C@H]([C@@H](C)O)C2[C@H]1C.[Na+] (stereo partly drawn),MIC,[3],0.25 µg/mL
same,MIC,[4],0.03 µg/mL
same,Relative hydrolysis,[5],2.9
same,MIC,[6],32 µg/mL
same,MIC,[7],64 µg/mL
same,MIC,[8],64 µg/mL
same,MIC,[9],> 128 µg/mL
same,MIC,[10],4 µg/mL
same,MIC,[11],0.25 µg/mL
same,MIC,[12],> 128 µg/mL
same,ED50,[1],0.59 mg/kg
same,MIC,[13],< 0.06 µg/mL
same,MIC,[14],0.06 µg/mL
same,MIC,[15],2 µg/mL
same,MIC,[16],16 µg/mL
same,MIC,[17],0.25 µg/mL
same,MIC,[18],< 0.06 µg/mL
same,MIC,[19],4 µg/mL
same,MIC,[20],1 µg/mL
same,MIC,[21],2 µg/mL
same,MIC,[22],< 0.06 µg/mL
same,MIC,[23],4 µg/mL
same,MIC,[24],0.5 µg/mL
same,MIC,[25],0.5 µg/mL
same,ED50,[2],5.1 mg/kg
same,MIC,[26],1 µg/mL
same,MIC,[27],8 µg/mL
same,MIC,[28],0.12 µg/mL
same,MIC,[29],> 128 µg/mL
same,MIC,[30],8 µg/mL
same,MIC,[31],> 128 µg/mL
CC(=O)OC(C)OC(=O)NC[C@H]1OCC[C@H]1SC1=C(C(=O)O)N2C(=O)[C@H]([C@@H](C)O)C2[C@H]1C (stereo partly drawn),Relative hydrolysis,[5],6
CC(C)C(=O)OCOC(=O)NC[C@H]1OCC[C@H]1SC1=C(C(=O)OCOC(=O)C(C)(C)C)N2C(=O)[C@H]([C@@H](C)O)C2[C@H]1C (stereo partly drawn),ED50,[1],1.9 mg/kg
same,ED50,[2],1.6 mg/kg
CCOC(=O)OC(C)OC(=O)C1=C(S[C@@H]2CCO[C@@H]2CN)[C@H](C)C2[C@@H]([C@@H](C)O)C(=O)N12.Cl (stereo partly drawn),ED50,[1],1.8 mg/kg
same,ED50,[2],25 mg/kg
CC(C)OC(=O)OC(C)OC(=O)C1=C(S[C@@H]2CCO[C@@H]2CNC(=O)OCOC(=O)C(C)C)[C@H](C)C2[C@@H]([C@@H](C)O)C(=O)N12 (stereo partly drawn),ED50,[1],2.1 mg/kg
same,ED50,[2],1.4 mg/kg
CCOC(=O)OCOC(=O)C1=C(S[C@@H]2CCO[C@@H]2CN)[C@H](C)C2[C@@H]([C@@H](C)O)C(=O)N12.Cl (stereo partly drawn),MIC,[3],1 µg/mL
same,MIC,[4],0.03 µg/mL
same,Relative hydrolysis,[5],11
same,MIC,[6],64 µg/mL
same,MIC,[7],128 µg/mL
same,MIC,[8],128 µg/mL
same,MIC,[9],128 µg/mL
same,MIC,[10],16 µg/mL
same,MIC,[11],0.5 µg/mL
same,MIC,[12],> 128 µg/mL
same,ED50,[1],0.62 mg/kg
same,MIC,[13],< 0.06 µg/mL
same,MIC,[14],0.12 µg/mL
same,MIC,[15],4 µg/mL
same,MIC,[16],32 µg/mL
same,MIC,[17],0.25 µg/mL
same,MIC,[18],< 0.06 µg/mL
same,MIC,[19],2 µg/mL
same,MIC,[20],2 µg/mL
same,MIC,[21],2 µg/mL
same,MIC,[22],< 0.06 µg/mL
same,MIC,[23],16 µg/mL
same,MIC,[24],0.5 µg/mL
same,MIC,[25],0.5 µg/mL
same,ED50,[2],8.2 mg/kg
same,MIC,[26],2 µg/mL
same,MIC,[27],64 µg/mL
same,MIC,[28],1 µg/mL
same,MIC,[29],> 128 µg/mL
same,MIC,[30],8 µg/mL
same,MIC,[31],> 128 µg/mL
CC(=O)OC(C)OC(=O)NC[C@H]1OCC[C@H]1SC1=C(C(=O)O)N2C(=O)[C@H]([C@@H](C)O)C2[C@H]1C.CCN(C(C)C)C(C)C (stereo partly drawn),ED50,[1],0.62 mg/kg
same,ED50,[2],4.5 mg/kg
C[C@@H](O)[C@H]1C(=O)N2C(C(=O)O)=C(SCCNC=N)C[C@H]12 [IMIPENEM ANHYDROUS],ED50,[1],0.7 mg/kg
same,ED50,[2],79 mg/kg
CC(C)C(=O)OCOC(=O)C1=C(SC2CCOC2CN)[C@H](C)C2[C@@H]([C@@H](C)O)C(=O)N12.CCN(C(C)C)C(C)C (stereo partly drawn),ED50,[1],0.18 mg/kg
same,ED50,[2],2.3 mg/kg
CCCC(=O)OCOC(=O)NC[C@H]1OCC[C@H]1SC1=C(C(=O)OCOC(=O)OCC)N2C(=O)[C@H]([C@@H](C)O)C2[C@H]1C (stereo partly drawn),ED50,[1],0.49 mg/kg
same,ED50,[2],1.3 mg/kg
CCOC(=O)OCOC(=O)C1=C(S[C@@H]2CCO[C@@H]2CNC(=O)OC(C)OC(=O)C(C)C)[C@H](C)C2[C@@H]([C@@H](C)O)C(=O)N12 (stereo partly drawn),ED50,[1],0.45 mg/kg
same,ED50,[2],0.72 mg/kg
CC(=O)OC(C)OC(=O)NC[C@H]1OCC[C@H]1SC1=C(C(=O)[O-])N2C(=O)[C@H]([C@@H](C)O)C2[C@H]1C.[Na+] (stereo partly drawn),MIC,[3],0.5 µg/mL
same,MIC,[4],< 0.06 µg/mL
same,MIC,[6],32 µg/mL
same,MIC,[7],64 µg/mL
same,MIC,[8],64 µg/mL
same,MIC,[9],> 128 µg/mL
same,MIC,[10],4 µg/mL
same,MIC,[11],0.12 µg/mL
same,MIC,[12],> 128 µg/mL
same,ED50,[1],0.65 mg/kg
same,MIC,[13],< 0.06 µg/mL
same,MIC,[14],< 0.06 µg/mL
same,MIC,[15],4 µg/mL
same,MIC,[16],32 µg/mL
same,MIC,[17],0.25 µg/mL
same,MIC,[18],< 0.06 µg/mL
same,MIC,[19],4 µg/mL
same,MIC,[20],1 µg/mL
same,MIC,[21],8 µg/mL
same,MIC,[22],< 0.06 µg/mL
same,MIC,[23],2 µg/mL
same,MIC,[24],1 µg/mL
same,MIC,[25],0.25 µg/mL
same,ED50,[2],4.9 mg/kg
same,MIC,[26],2 µg/mL
same,MIC,[27],32 µg/mL
same,MIC,[28],0.12 µg/mL
same,MIC,[29],> 128 µg/mL
same,MIC,[30],16 µg/mL
same,MIC,[31],> 128 µg/mL
CCN(C(C)C)C(C)C.C[C@H]1C(S[C@@H]2CCO[C@@H]2CNC(=O)OCOC(=O)C(C)(C)C)=C(C(=O)O)N2C(=O)[C@H]([C@@H](C)O)C12 (stereo partly drawn),ED50,[1],0.65 mg/kg
same,ED50,[2],2.9 mg/kg
CC(OC(=O)OC1=CCCCC1)OC(=O)C1=C(S[C@@H]2CCO[C@@H]2CN)[C@H](C)C2[C@@H]([C@@H](C)O)C(=O)N12.Cl (stereo partly drawn),ED50,[1],1.6 mg/kg
same,ED50,[2],> 3.2 mg/kg
CCOC(=O)OCOC(=O)NCC1OCCC1SC1=C(C(=O)OCOC(=O)C(C)C)N2C(=O)[C@H]([C@@H](C)O)C2[C@H]1C (stereo partly drawn),ED50,[1],0.37 mg/kg
same,ED50,[2],0.87 mg/kg
CCOC(=O)OCOC(=O)C1=C(S[C@@H]2CCO[C@@H]2CNC(=O)OCOC(=O)c2ccccc2)[C@H](C)C2[C@@H]([C@@H](C)O)C(=O)N12 (stereo partly drawn),ED50,[1],0.54 mg/kg
same,ED50,[2],0.76 mg/kg
C[C@H]1C(SC2COC(CN)C2)=C(C(=O)O)N2C(=O)[C@H]([C@@H](C)O)C12 (stereo partly drawn),ED50,[1],0.28 mg/kg
same,ED50,[2],3.5 mg/kg
